Laboratory results: patent publication US5352602A, “Isoamylase and process for producing the same” (Amano Pharmaceutical Co., Ltd., priority 1992, dated 1994)
“Also recorded” adds a separate entry of the source. Read-outs that look alike come from different tables or passages of the source.

Assays:
[1] = tested on: isoamylase of Xanthomonas maltophilia S-517; test: Influence of inhibitors and metal salts on isoamylase activity; assay type: biochemical; details: for Inhibition by Metal Salt: Table 3, isoamylase of Xanthomonas maltophilia S-517 (Invention); for Inhibition of the enzyme of the present invention: in words
Protocol: Measurements of activity of the enzyme of the present invention were made as follows in accordance with the method of Maruo-Kobayashi (see NIHON NOGEI KAISHI, Vol. 23, pp. 115-120 (1949).
A reaction system consisting of 2.0 ml of a 1.0% soluble starch (glutinous rice) solution, 0.4 ml of a 0.5M acetate buffer solution (pH=3.5), and 0.4 ml of an enzyme liquid was allowed to react at 40° C. for 30 minutes. To the reaction system was added 0.4 ml of a 0.01N iodine solution. After dilution with water to 10 ml, the absorbance at 610 nm was measured. The enzyme activity on an absorbance increase of 0.1 within 1 hour was taken as 10 units.

[2] = tested on: isoamylase of Pseudomonas origin; details: cited from earlier work; for Inhibition by Metal Salt: Table 3, isoamylase of Pseudomonas origin; for Inhibition of the enzyme derived from Pseudomonas: in words
[3] = tested on: isoamylase of Xanthomonas maltophilia S-517; test: Substrate specificity of the purified isoamylase; assay type: biochemical; details: for Substrate specificity: in words; for Initial Velocity: relative, glycogen = 100; for V: velocity of the purified isoamylase on the named substrate

## O=[N+]([O-])c1ccc(O)c(CBr)c1 [2-Hydroxy-5-nitrobenzyl bromide]
[1]; inhibitor concentration 0.1 mM
  Percent Inhibition: 14.3%

## CC(=O)I [Acetyl monoiodide]
[1]; inhibitor concentration 0.1 mM
  Percent Inhibition: 10.1%
[1]; inhibitor concentration 5 mM
  Percent Inhibition: 34.6%

## O=[N+]([O-])[O-].[Ag+] [AgNO3]
[1]; inhibitor concentration 1 mM
  Percent Inhibition: 98.0%

## [Cl][Cu][Cl] [CuCl2]
[1]; inhibitor concentration 1 mM
  Percent Inhibition: 20.7%

## O=C(O)CN(CCN(CC(=O)O)CC(=O)O)CC(=O)O [EDTA]
[1]; inhibitor concentration 5 mM
  Percent Inhibition: 0%

## O=C1O[C@H](CO)[C@@H](O)[C@H](O)[C@H]1O [Glucono-1,5-lactone]
[1]; inhibitor concentration 10 mM
  Percent Inhibition: 8.0%

## [Cl][Hg][Cl] [HgCl2]
[1]; inhibitor concentration 1 mM
  Percent Inhibition: 42.2%

## [Cl-].[Cl-].[Mg+2] [MgCl2]
[1]
  Inhibition by Metal Salt: 26.3%
  Inhibition of the enzyme of the present invention: inhibited
[1]; inhibitor concentration 1 mM
  Percent Inhibition: 26.3%
[2]
  Inhibition by Metal Salt: 0%
  Inhibition of the enzyme derived from Pseudomonas: not inhibited

## O=C1CCC(=O)N1Br [N-Bromosuccinimide]
[1]; inhibitor concentration 0.01 mM
  Percent Inhibition: 100.0%

## [Cl-].[Na+] [NaCl]
[1]
  Percent Inhibition: 0%

## [F-].[Na+] [NaF]
[1]
  Inhibition by Metal Salt: 0%
  Inhibition of the enzyme of the present invention: not inhibited
[1]; inhibitor concentration 1 mM
  Percent Inhibition: 0%
[2]
  Inhibition by Metal Salt: 19%
  Inhibition of the enzyme derived from Pseudomonas: inhibited

## O=C(O)c1cc[c]([Hg][Cl])cc1 [PCMB]
[1]
  Inhibition by Metal Salt: 0%
  Inhibition of the enzyme of the present invention: not inhibited
[1]; inhibitor concentration 1 mM
  Percent Inhibition: 0%
[2]
  Inhibition by Metal Salt: 34%
  Inhibition of the enzyme derived from Pseudomonas: inhibited

## I[I-]I.[K+] [Potassium iodoiodide]
[1]; inhibitor concentration 1 mM
  Percent Inhibition: 4.5%

## O=C1CCC(=O)O1 [Succinic anhydride]
[1]; inhibitor concentration 5 mM
  Percent Inhibition: 8.4%

## OCCS [β-Mercaptoethanol]
[1]; inhibitor concentration 10 mM
  Percent Inhibition: 31.7%

## Ammonium molybdate
[1]; inhibitor concentration 1 mM
  Percent Inhibition: 0%

## Amylopectin
[3]
  Substrate specificity: acts
  Initial Velocity: 34.7%
  V: 2.18 × 10^-1 μmol/min/U

## Glycogen
[3]
  Substrate specificity: actively acts
  Initial Velocity: 100%
  V: 6.28 × 10^-1 μmol/min/U

## Pullulan
[3]
  Substrate specificity: does not act; also recorded: hardly acts
  Initial Velocity: 1.3%
  V: 8.45 × 10^-3 μmol/min/U
